Experimental data reported in patent publication EP2987533B1, “7-substituted piperazin-1-yl fluoroquinolone compounds, their use in the treatment of cancer, pharmaceutical compositions and a method for preparation” (priority 2014, dated 2016).

Tests used:
renal cancer = assay: NCI five-dose SRB assay, subpanel average; details: 48 h; for GI50 / CC50: Homo sapiens; for GI50: read-out: GI50 (median growth inhibitory); for CC50: read-out: LC50 (median lethal); for TGI (total growth inhibitory): average over renal cancer subpanel, five concentrations
ovarian cancer = assay: NCI five-dose SRB assay, subpanel average; details: 48 h; for GI50 / CC50: Homo sapiens; for GI50: read-out: GI50 (median growth inhibitory); for CC50: read-out: LC50 (median lethal); for TGI (total growth inhibitory): average over ovarian cancer subpanel, five concentrations
SK-MEL-28 = assay: NCI one-dose SRB growth assay; format: cell-based; details: Homo sapiens; SK-MEL-28 (Melanoma), 10^-5 M, 48 h; read-out: % Growth Inhibition (GI %)
Experimental: (§1) A primary anticancer assay was performed for an approximately 60 human tumor cell line panel derived from nine neoplastic diseases, in accordance with the protocol of the Drug Evaluation Branch, National Cancer Institute, Bethesda, MD (Monks A. et al., J. Natl. Cancer Inst 1991, 83, 757-766; Boyd M.R. and Paull K.D., Drug. Dev. Res. 1995, 34, 91-109; Shoemaker R.H., Nat. Rev. Cancer 2006, 6, 813-823). Briefly, tested compounds were added to the culture at a single concentration (10^-5M), and the cultures were incubated for 48 h. End point determinations were made with a protein binding dye, sulforhodamine B (SRB). The results for each tested compound were reported as the growth percentage of the treated cells when compared to that of the untreated control cells. The percentage growth was evaluated spectrophotometrically versus controls not treated with test agents.

NCI-H322M = assay: NCI one-dose SRB growth assay; format: cell-based; details: Homo sapiens; NCI-H322M (Non-Small Cell Lung Cancer), 10^-5 M, 48 h; read-out: % Growth Inhibition (GI %)
Experimental: as §1

SN12C = assay: NCI one-dose SRB growth assay; format: cell-based; details: Homo sapiens; SN12C (Renal Cancer), 10^-5 M, 48 h; read-out: % Growth Inhibition (GI %)
Experimental: as §1

SK-MEL-5 = assay: NCI one-dose SRB growth assay; format: cell-based; details: Homo sapiens; SK-MEL-5 (Melanoma), 10^-5 M, 48 h; read-out: % Growth Inhibition (GI %)
Experimental: as §1

DU-145 = assay: NCI one-dose SRB growth assay; format: cell-based; details: Homo sapiens; DU-145 (Prostate Cancer), 10^-5 M, 48 h; read-out: % Growth Inhibition (GI %)
Experimental: as §1

UO-31 = assay: NCI one-dose SRB growth assay; format: cell-based; details: Homo sapiens; UO-31 (Renal Cancer), 10^-5 M, 48 h; read-out: % Growth Inhibition (GI %)
Experimental: as §1

MOLT-4 = assay: NCI one-dose SRB growth assay; format: cell-based; details: Homo sapiens; MOLT-4 (Leukemia), 10^-5 M, 48 h; read-out: % Growth Inhibition (GI %)
Experimental: as §1

CCRF-CEM = assay: NCI one-dose SRB growth assay; format: cell-based; details: Homo sapiens; CCRF-CEM (Leukemia), 10^-5 M, 48 h; read-out: % Growth Inhibition (GI %)
Experimental: as §1

OVCAR-3 = assay: NCI one-dose SRB growth assay; format: cell-based; details: Homo sapiens; OVCAR-3 (Ovarian Cancer), 10^-5 M, 48 h; read-out: % Growth Inhibition (GI %)
Experimental: as §1

MDA-MB-231/ATCC = assay: NCI one-dose SRB growth assay; format: cell-based; details: Homo sapiens; MDA-MB- 231/ATCC (Breast Cancer), 10^-5 M, 48 h; read-out: % Growth Inhibition (GI %)
Experimental: as §1

NCI/ADR-RES = assay: NCI one-dose SRB growth assay; format: cell-based; details: Homo sapiens; NCI/ADR-RES (Ovarian Cancer), 10^-5 M, 48 h; read-out: % Growth Inhibition (GI %)
Experimental: as §1

SF-268 = assay: NCI one-dose SRB growth assay; format: cell-based; details: Homo sapiens; SF-268 (CNS Cancer), 10^-5 M, 48 h; read-out: % Growth Inhibition (GI %)
Experimental: as §1

OVCAR-4 = assay: NCI one-dose SRB growth assay; format: cell-based; details: Homo sapiens; OVCAR-4 (Ovarian Cancer), 10^-5 M, 48 h; read-out: % Growth Inhibition (GI %)
Experimental: as §1

OVCAR-8 = assay: NCI one-dose SRB growth assay; format: cell-based; details: Homo sapiens; OVCAR-8 (Ovarian Cancer), 10^-5 M, 48 h; read-out: % Growth Inhibition (GI %)
Experimental: as §1

HT29 = assay: NCI one-dose SRB growth assay; format: cell-based; details: Homo sapiens, HT-29; HT29 (Colon Cancer), 10^-5 M, 48 h; read-out: % Growth Inhibition (GI %)
Experimental: as §1

TK-10 = assay: NCI one-dose SRB growth assay; format: cell-based; details: Homo sapiens; TK-10 (Renal Cancer), 10^-5 M, 48 h; read-out: % Growth Inhibition (GI %)
Experimental: as §1

HCC-2998 = assay: NCI one-dose SRB growth assay; format: cell-based; details: Homo sapiens; HCC-2998 (Colon Cancer), 10^-5 M, 48 h; read-out: % Growth Inhibition (GI %)
Experimental: as §1

CNS cancer = assay: NCI five-dose SRB assay, subpanel average; details: 48 h; for GI50 / CC50: Homo sapiens; for GI50: read-out: GI50 (median growth inhibitory); for CC50: read-out: LC50 (median lethal); for TGI (total growth inhibitory): average over CNS cancer subpanel, five concentrations
colon cancer = assay: NCI five-dose SRB assay, subpanel average; details: 48 h; for GI50 / CC50: Homo sapiens; for GI50: read-out: GI50 (median growth inhibitory); for CC50: read-out: LC50 (median lethal); for TGI (total growth inhibitory): average over colon cancer subpanel, five concentrations
[1] = system: full panel of about 60 human tumor cell lines; assay: NCI five-dose SRB assay, full panel mean; details: 48 h; for CC50 / GI50: Homo sapiens; for CC50: 60 cell, read-out: LC50 MG-MID (Full panel mean-graph midpoint); for GI50: read-out: GI50 MG-MID (Full panel mean-graph midpoint); for TGI MG-MID (Full panel mean-graph midpoint): five concentrations
NSC lung cancer = assay: NCI five-dose SRB assay, subpanel average; details: 48 h; for GI50 / CC50: Homo sapiens; for GI50: read-out: GI50 (median growth inhibitory); for CC50: read-out: LC50 (median lethal); for TGI (total growth inhibitory): average over NSC lung cancer subpanel, five concentrations
leukemia = assay: NCI five-dose SRB assay, subpanel average; details: 48 h; for GI50 / CC50: Homo sapiens; for GI50: read-out: GI50 (median growth inhibitory); for CC50: read-out: LC50 (median lethal); for TGI (total growth inhibitory): average over leukemia subpanel, five concentrations
[2] = system: 60 human tumor cell line panel; assay: NCI 60 cell line one-dose SRB primary anticancer assay; format: cell-based; details: 60 cell lines assay in one dose, 10µM (title; head prints 10.0 mM), 48 h; for inhibition at 10 µM: Homo sapiens, read-out: MGI % (Mean growth inhibition percentage)
Experimental: as §1

melanoma = assay: NCI five-dose SRB assay, subpanel average; details: 48 h; for GI50 / CC50: Homo sapiens; for GI50: read-out: GI50 (median growth inhibitory); for CC50: read-out: LC50 (median lethal); for TGI (total growth inhibitory): average over melanoma subpanel, five concentrations

## CCn1cc(C(=O)O)c(=O)c2cc(F)c(N3CCN(S(=O)(=O)c4ccc(Cl)cc4Cl)CC3)cc21 [Compound 2a]
Renal cancer
  GI50: 2.73 µM
  CC50: 82.5 µM
  TGI (total growth inhibitory): 23.97 µM
Ovarian cancer
  GI50: 2.96 µM
  CC50: 76.7 µM
  TGI (total growth inhibitory): 39.54 µM
SK-MEL-28
  inhibition at 10 µM: < 10%
NCI-H322M
  inhibition at 10 µM: > 100%
SN12C
  inhibition at 10 µM: 89.7%
SK-MEL-5
  inhibition at 10 µM: > 100%
DU-145
  inhibition at 10 µM: 88.4%
UO-31
  inhibition at 10 µM: > 100%
MOLT-4
  inhibition at 10 µM: 98.2%
CCRF-CEM
  inhibition at 10 µM: 97.2%
OVCAR-3
  inhibition at 10 µM: 92.1%
MDA-MB-231/ATCC
  inhibition at 10 µM: 74.5%
NCI/ADR-RES
  inhibition at 10 µM: 90.7%
SF-268
  inhibition at 10 µM: 75.4%
OVCAR-4
  inhibition at 10 µM: < 10%
OVCAR-8
  inhibition at 10 µM: 94.2%
HT29
  inhibition at 10 µM: 98.1%
TK-10
  inhibition at 10 µM: 87.6%
HCC-2998
  inhibition at 10 µM: 69.4%
CNS cancer
  GI50: 3.03 µM
  CC50: 77.2 µM
  TGI (total growth inhibitory): 34.84 µM
Colon cancer
  GI50: 3.15 µM
  CC50: 77.2 µM
  TGI (total growth inhibitory): 72.89 µM
[1]
  CC50: 57.5 µM
  GI50: 2.63 µM
  TGI MG-MID (Full panel mean-graph midpoint): 14.12 µM
NSC lung cancer
  GI50: 2.49 µM
  CC50: 73.2 µM
  TGI (total growth inhibitory): 19.61 µM
leukemia
  GI50: 3.07 µM
  CC50: > 100 µM
  TGI (total growth inhibitory): 62.54 µM
[2]
  PCE (Positive cytotoxic effect: ratio between number of cell lines with percentage growth inhibition from 10 to >100 and total number of cell lines): 56/58
  RGI % (Range of growth inhibition percentage): >100.0 to 25.22%
  inhibition at 10 µM: 94.2%
melanoma
  GI50: 2.3 µM
  CC50: 39.5 µM
  TGI (total growth inhibitory): 6.36 µM

## O=C(O)c1cn(C2CC2)c2cc(N3CCN(S(=O)(=O)c4ccc(Cl)c(Cl)c4)CC3)c(F)cc2c1=O [Compound 3b]
Renal cancer
  GI50: 3.19 µM
  CC50: > 100 µM
  TGI (total growth inhibitory): 87.07 µM
Ovarian cancer
  GI50: 3.39 µM
  CC50: > 100 µM
  TGI (total growth inhibitory): 88.90 µM
SK-MEL-28
  inhibition at 10 µM: 51.5%
NCI-H322M
  inhibition at 10 µM: 78.7%
SN12C
  inhibition at 10 µM: 89.6%
SK-MEL-5
  inhibition at 10 µM: 97.9%
DU-145
  inhibition at 10 µM: 82.8%
UO-31
  inhibition at 10 µM: 90%
MOLT-4
  inhibition at 10 µM: 96.6%
CCRF-CEM
  inhibition at 10 µM: 83.1%
OVCAR-3
  inhibition at 10 µM: 90.1%
MDA-MB-231/ATCC
  inhibition at 10 µM: 63.4%
NCI/ADR-RES
  inhibition at 10 µM: 46.5%
SF-268
  inhibition at 10 µM: 80.4%
OVCAR-4
  inhibition at 10 µM: 79.2%
OVCAR-8
  inhibition at 10 µM: 94.5%
HT29
  inhibition at 10 µM: 99.7%
TK-10
  inhibition at 10 µM: 66.8%
HCC-2998
  inhibition at 10 µM: 75.2%
CNS cancer
  GI50: 3.68 µM
  CC50: > 100 µM
  TGI (total growth inhibitory): c (Compounds showed values > 100µM)
Colon cancer
  GI50: 3.79 µM
  CC50: > 100 µM
  TGI (total growth inhibitory): 87.41 µM
[1]
  CC50: 95.5 µM
  GI50: 3.09 µM
  TGI MG-MID (Full panel mean-graph midpoint): 60.25 µM
NSC lung cancer
  GI50: 3.07 µM
  CC50: > 100 µM
  TGI (total growth inhibitory): 84.28 µM
leukemia
  GI50: 3.02 µM
  CC50: > 100 µM
  TGI (total growth inhibitory): 62.55 µM
[2]
  PCE (Positive cytotoxic effect: ratio between number of cell lines with percentage growth inhibition from 10 to >100 and total number of cell lines): 58/58
  RGI % (Range of growth inhibition percentage): >100.0 to 46.49%
  inhibition at 10 µM: 89.2%
melanoma
  GI50: 2.54 µM
  CC50: 87.1 µM
  TGI (total growth inhibitory): 52.41 µM
